Entries after “also recorded” stand apart in the source; their conditions may differ.
Experiments:
BMDMs [1] = assay: Nitric oxide production of pre-stained macrophages polarised to M1 phenotype (Griess test); format: cell-based, mouse; details: after 2 days activation with IFNγ and PAM3SCK4; 5-50 μM 6e
Description: The impact of SP compound 6e on the BMDMs’ functional characteristics was also assessed by performing cell differentiation into the M1 phenotype in the presence of compound 6e. The BMDMs were treated with 5–50 μM compound 6e and the cell medium was replaced with a macrophage differentiation medium containing recombinant mouse interferon-gamma (IFNγ) and the TLR2/1 ligand PAM3SCK4 to ensure M1 polarisation. Activated cells express proinflammatory molecules (cytokines and chemokines), as well as nitric oxide (NO) as the main features of their proinflammatory M1-like macrophage phenotype. To verify the NO level in cell culture media, nitrites, as nitric oxide oxidation products, were measured by the standard Griess test. […]
For polarisation of macrophages to the pro-inflammatory M1 phenotype, the BMDM cells stained in a 12-well plate were used. […] After two days of activation, the nitric oxide levels (as a main signal of M1 polarisation) were measured in cell supernatants of activated (M1) and non-activated (M0) cells. The amount of nitric oxide was determined via a nitric oxide assay kit (Cat. No. EMSNO; Invitrogen). Briefly, 50 µL of cell culture media was collected from each well, clarified by centrifugation, and used for NO quantification. The nitrite standards provided by the kit were used for standard curve generation and NO quantification. […]

BMDMs [2] = assay: Confocal microscopy, localisation of the staining; format: cell-based, mouse; details: 5 μM, confocal microscopy with WGA Alexa Fluor 488 and DAPI
Source text: The stained BMDMs were studied using confocal microscopy to verify the membrane, cytoplasmic, or nuclear localisation of the staining (Figure 6). Wheat germ agglutinin (WGA) Alexa Fluor 488 (Invitrogen, W11261) was chosen for selective plasma membrane labelling and DAPI (Invitrogen, D1306) was selected for nucleus labelling. […] Furthermore, the SP compound 6e was compared with commercially available CM-DiI Dye (Invitrogen, ex/em: 553/570, Figure 6b).
For confocal microscopy, BMDMs were stained with 4 μM CellTracker™ CM-DiI dye (Cat. No. C7001; Invitrogen) or 5 μM compound 6e. Briefly, the cells were washed and then a dye solution in PBS was added to them. […] Then, the cells were stained with WGA Alexa Fluor 488 (Cat. No. W11261; Invitrogen) following the manufacturer’s instructions. Briefly, the cells were incubated with 1 μg/mL WGA solution in PBS at 37 °C. […] The fluorescence was detected as follows: a DPSS (561 nm) laser was used for excitation of compound 6e and CM-Dil, an argon (488 nm) laser was used for WGA, and a diode (405 nm) laser was used for DAPI. For fluorescence detection, HyD was used for compound 6e and CM-Dil (578 nm–636 nm) and PMT detectors were used for WGA (493 nm–739 nm) and DAPI (417 nm–498 nm), pinhole at 95 µm. The images were analysed using Leica Application Suite X 3.1.5. software (Leica Microsystems, Germany).

Structure (SMILES): CCCCCCCCCCCCCCCC[n+]1ccc(C=CC=Cc2cc3c4c(c2)CCCN4CCC3)cc1.[Br-] [Compound 6e, 1-hexadecyl-4-(4-(2,3,6,7-tetrahydro-1H,5H-pyrido[3,2,1-ij]quinolin-9-yl)buta-1,3-dien-1-yl)pyridin-1-ium bromide]
- NO production of stained BMDMs (BMDMs [1]): up to 21.5 µM
- localisation of the staining in cells (BMDMs [2]): strong fluorescent signal localised in the cell cytoplasm, whereas the cell nuclei were not stained; also recorded: localised in the cell cytoplasm and does not stain the cell nucleus; also recorded: localises within the cell cytoplasm and does not stain the cell nucleus
